The source of these data is publication PMC10445283, “Boronate-Based Oxidant-Responsive Derivatives of Acetaminophen as Proinhibitors of Myeloperoxidase” (Chemical Research in Toxicology, 2023).

Where “and” joins values, the source holds several entries; their conditions need not be identical. Equal entries are not always repeated. Entries after “also recorded” stand apart in the source; their conditions may differ. Where two headings read alike, the source gives them in different places.

The nature of series [1]: Competition kinetics with FLBA: reaction with HOCl. The following applies: pH 7.4, 50 mM phosphate buffer. Type of series: physicochemical. As to the method:
(§1) The rate constants of the reactions of AMBB and AAPBA with ONOO^– and HOCl were determined by a competition kinetic method using FLBA as a reference compound.[18],[21],[22] In this approach, two pseudo-first-order reactions were assumed, a reaction between FLBA and the selected oxidant, ONOO^– or HOCl (eq 1), and between the investigated acetaminophen derivative (R-B(OH)2) and the oxidant (eq 2). Typically, the set of samples containing FLBA (20 μM), phosphate buffer (50 mM, pH 7.4), and AMBB or AAPBA (0–160 μM) in Eppendorf tubes was prepared. A concentrated basic solution of HOCl or ONOO^– was then added to the samples and rapidly mixed. The resulting concentration of an appropriate oxidant was 1.5 μM. Next, the samples were transferred to a 96-well plate, and the fluorescence intensity of the formed fluorescein was measured. The fluorescence intensity was followed with a Varioscan LUX plate reader using λex = 490 nm, λem = 515 nm, and slit widths of 12 nm.

Series [2] can be described thus: Competition kinetics with FLBA: reaction with ONOO–. The format is physicochemical. Conditions: pH 7.4, 50 mM phosphate buffer. On the procedure: as §1
The target of series [3] is T1, MPO from human neutrophils (Homo sapiens, UniProt P05164).
T1 construct: MPO from human neutrophils was obtained from Athens Research and Technology (Athens, GA); purchased Athens Research and Technology (Athens, GA); host or cells: human neutrophils (natural source)
Nature of the series: NBD-TM oxidation assay of MPO-derived HOCl. Type of series: biochemical. Conditions: for IC50: NBD-TM 20 μM, MPO 0.1 nM, H2O2 10 μM, NaCl 0.1 M, pH 7.4, 5 min, read-out: IC50, inhibition of MPO chlorinating activity. As to the method:
(§2) The performance of AM and its derivatives in inhibition of the MPO chlorinating activity was evaluated using dose–response curves. The half maximal inhibitory concentration (IC50) values were determined on the basis of three independent measurements using a dose–response fitting mode implemented in OriginPro 2020 (OriginLab Corp.) software. […] MPO stock solution was prepared according to the supplier’s instruction by dissolving lyophilized powder of MPO in distilled water and was stored at 6 °C. The desired MPO activity was obtained by dilution of the stock solution with phosphate buffer (50 mM, pH 7.4) containing sodium chloride (0.1 M).
MPO-derived HOCl was monitored by an NBD-TM probe according to the previously described procedure (Supplementary Figure S5).[18] Briefly, to 96-well plates containing MPO, NBD-TM (40 μM), the studied compounds, phosphate buffer (100 mM, pH 7.4), and sodium chloride (0.2 M), 20 μM solution of hydrogen peroxide was added to start the reaction (mixing ratio 1:1 v/v). Then, the changes of fluorescence intensity were measured by Varioscan LUX using λex = 475 nm, λem = 575 nm, and slits width of 12 nm. This enabled the direct monitoring of fluorescent NBD-TSO formation.
The MPO inhibitory activity of AM was compared with its two synthesized boronated derivatives (Figure 1). […] In the taurine-based assay, HOCl oxidizes taurine to taurine N-chloramine. The resulting N-chloramine is then quantified in a reaction with N,N,N′,N′-tetramethylbenzidine catalyzed by potassium iodide.[20] In the case of the NBD-TM probe, in the presence of HOCl, the sulfur atom in the probe is oxidized to sulfoxide, producing a highly fluorescent NBD-TSO.[18]

Series [4] has as its target T1, MPO from human neutrophils. Nature of the series: Taurine N-chloramine/TMB assay of MPO-derived HOCl. The format is biochemical. The following applies: for IC50: read-out: IC50, inhibition of MPO chlorinating activity. On the procedure: as §2
The diluted MPO solution was pipetted directly into the 96-well plate (1.45 μL). […] The prepared 96-well plate was incubated for 5 min, and the reaction was started by the addition of 110 μL per well of 20 μM H2O2 solution in water. The plate was incubated for another 5 min, and then 200 μL of the incubation mixtures was transferred to another 96-well plate prefilled with catalase solution (10 kU/mL, 2 μL per well) to remove unreacted hydrogen peroxide and to stop the reaction. Next, 50 μL per well of developing reagent composed of 2 mM TMB, 100 μM potassium iodide, and 0.32 M acetate buffer (pH 5.4) was added, and absorbance at 645 nm was measured by a Varioscan LUX (Thermo Fisher Scientific) plate reader controlled by SkanIt 6.0.2 software. The typical chlorinating activity of MPO during the inhibition experiments was 5 nM/s HOCl as determined using a CBA oxidation-based assay.[18] The concentration of H2O2 in the stock solution was determined spectrophotometrically at 240 nm using the molar extinction coefficient ε = 43.6 M^–1 cm^–1. The chemical structures of the TMB and CBA probes, along with their oxidation products, are presented in Supplementary Figure S5.
The MPO inhibitory activity of AM was compared with its two synthesized boronated derivatives (Figure 1). […] The resulting N-chloramine is then quantified in a reaction with N,N,N′,N′-tetramethylbenzidine catalyzed by potassium iodide.[20] […]

The nature of series [5]: Pseudo-first-order kinetics of reaction with H2O2 (UPLC). The format is physicochemical. Conditions: pH 7.4, 20 mM phosphate buffer, 0.2–1 mM H2O2. As to the method:
The rate constants for H2O2 and the studied boronic acids were determined directly under the pseudo-first-order conditions. Typically, the incubation mixtures contained boronic acid (20 μM), phosphate buffer (20 mM), CH3CN (2.5% v/v), and at least 10-fold excess of H2O2 (0.2–1 mM). The changes of analyte concentrations were followed by UPLC using a photodiode array detector (λmax = 250 ± 1.2 nm). On the basis of kinetic traces of AMBB and AAPBA decay (Supplementary Figure S6), the pseudo-first-order rate constants were determined. The second-order rate constants were calculated using the linear relationship between the determined pseudo-first-order rate constants and H2O2 concentrations.

Series [6] is described as follows: Spontaneous conversion of AMB-OH into acetaminophen (UPLC). Type of series: physicochemical. As to the method: Ultra-performance liquid chromatograph (UPLC) Acquity (Waters Ltd.) equipped with a photodiode array detector and combined with an LCT Premier XE (Waters Ltd.) mass spectrometer was used for the chromatographic separation and identification of AMBB and AAPBA oxidation products. Separation was performed on a reversed-phase C18 UPLC column (Waters Acquity UPLC BEH C18 […], 50 × 2.1 mm) equilibrated with a water/acetonitrile (CH3CN) (90/10 v/v) mobile phase containing 0.1% (v/v) trifluoroacetic acid (TFA). The analytes were separated at a flow rate of 0.3 mL/min. During the first 0.5 min of analysis, the composition of the mobile phase remained unchanged. […] The injection volume was 2 μL, the sample temperature was 20 °C, and the column temperature was 40 °C. The electrospray source was operated at positive ion mode using the following parameters: capillary voltage 2.8 kV, sample cone voltage 60 V, desolvation temp. 350 °C, source temp. 100 °C, desolvation gas flow 800 L/h, and cone gas flow 50 L/h. The MCP detector voltage was 2.5 kV.
Figure 4 Kinetics of the conversion of AMB-OH into acetaminophen (AM). AMB-OH was produced in situ by mixing 50 μM AMBB with 50 μM NaOCl in 20 mM phosphate buffer, pH 7.4. (A) UPLC peak areas of AMB-OH (open squares) and AM (open circles) as a function of incubation time. UPLC peak areas were integrated for chromatograms extracted at 250 ± 1.2 nm. (B) Scheme of the quinone methide moiety elimination by AMB-OH to form AM. TEXT PRINTED IN THE PICTURE: (A) AM: ^1k = (1.85 ± 0.01) × 10^-4 s^-1 | (A) AMB-OH: ^1k = (2.00 ± 0.01) × 10^-4 s^-1

The target of another series is T2, MPO (Homo sapiens, UniProt P05164).
T2 construct: MPO from human neutrophils was obtained from Athens Research and Technology (Athens, GA); purchased Athens Research and Technology (Athens, GA); host or cells: human neutrophils (natural source)
Nature of the series: MPO-dependent HOCl generation (summary values). The format is biochemical. As to the method: as §2

The nature of series [7]: Solubility in MPO assay mixture. The format is physicochemical. Conditions: above 0.3 mM in assay mixture, pH 7.4, 3% methanol. On the procedure: For AMBB, in the range of 0 nM to 0.3 mM, no inhibition of HOCl production was observed (Figure 1A).
The subject of a further series is COX-2. Conditions: reference not given; read-out: IC50 for the inhibition of COX-2; cited from earlier work.
Details of series [8]: method as in PMID 3395354. The following applies: pH 7; cited from earlier work.
On the set-up of series [9]: method as in PMID 34884784. The following applies: previously reported; cited from earlier work.
For series [10] the following is noted: cited from earlier work.
Where [11] appears, read: abstract summary, read-out: IC50 toward MPO-dependent HOCl generation.

T1 sequence (P05164 279-745 limits assumed): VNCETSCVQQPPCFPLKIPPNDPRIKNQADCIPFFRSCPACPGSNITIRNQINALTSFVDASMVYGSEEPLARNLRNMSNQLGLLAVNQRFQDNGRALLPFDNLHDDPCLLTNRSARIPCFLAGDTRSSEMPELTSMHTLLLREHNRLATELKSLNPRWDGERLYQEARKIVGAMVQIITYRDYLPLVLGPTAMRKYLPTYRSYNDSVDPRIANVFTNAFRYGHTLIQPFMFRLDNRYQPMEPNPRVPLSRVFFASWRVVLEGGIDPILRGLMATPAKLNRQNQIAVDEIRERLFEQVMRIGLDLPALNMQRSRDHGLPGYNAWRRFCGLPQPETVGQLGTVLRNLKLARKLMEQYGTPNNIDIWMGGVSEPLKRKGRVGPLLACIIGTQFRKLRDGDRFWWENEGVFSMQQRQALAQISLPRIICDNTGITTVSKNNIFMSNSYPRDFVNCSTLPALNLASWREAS
T1 sequence (P05164 165-273 limits assumed): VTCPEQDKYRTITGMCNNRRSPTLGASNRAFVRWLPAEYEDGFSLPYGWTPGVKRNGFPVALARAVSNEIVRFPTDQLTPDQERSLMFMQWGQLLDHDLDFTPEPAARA
T2 sequence (P05164 279-745 limits assumed): as the sequence (P05164 279-745 limits assumed) above
T2 sequence (P05164 165-273 limits assumed): as the sequence (P05164 165-273 limits assumed) above

For `CC(=O)Nc1ccc(B(O)O)cc1` [AAPBA, 4-Acetamidophenylboronic Acid], in [1], the “second-order rate constant of reaction with HOCl” value is “(1.72 ± 0.01) × 10^4 M^–1 s^–1”. The “second-order rate constant of reaction with ONOO–” value in series [2] is “(1.1 ± 0.3) × 10^6 M^–1 s^–1”. Besides, the IC50 in series [3] is 394 ± 2 µM; in series [4], 420 ± 60 µM. Besides, the “second-order rate constant of reaction with H2O2” value in [5] is 1.9 ± 0.1 M^–1 s^–1.

Turning to `CC(=O)Nc1ccc(OCc2ccc(O)cc2)cc1` [AMB-OH, N-[4-(4-hydroxybenzyloxy)phenyl]acetamide], the “time to complete conversion into AM” value in series [6] (pH 7.4, room temperature) is 5 h. Further, in [6] (phosphate buffer, pH 7.4, pH 7.4, room temperature, read-out: half-life time (converted)), the half-life is 60 min.

Consider `CC(=O)Nc1ccc(OCc2ccc(B(O)O)cc2)cc1` [AMBB, (4-((4-Acetamidophenoxy)methyl)phenyl)-boronic Acid], for which the IC50 on MPO (setting [11]) is over 300 µM. Moreover, the solubility result in [7] was “limited solubility and precipitation”. For the same molecule, the “inhibitory effect on HOCl production activity of MPO” value in [3] (no taurine, effect seen in the 0.1–0.3 mM range) is “shows the inhibitory effects; also recorded: exhibits inhibitory activity”. Besides, the “inhibition of HOCl production” value in [4] (in the presence of taurine, 0 nM to 0.3 mM compound) is “no inhibition; also recorded: not show any inhibitory activity; also recorded: failed to inhibit the chlorination cycle”. For the same molecule, in series [5], the “second-order rate constant of reaction with H2O2” value is 1.67 M^–1 s^–1 and 1.67 ± 0.02 M^–1 s^–1.

Regarding `CC(=O)Nc1ccc(O)cc1` [Acetaminophen, N-(4-hydroxyphenyl)acetamide], the IC50 was […] in the series with COX-2; 140 µM at MPO (setting [11]); 150 µM at MPO (rounded value in discussion, read-out: IC50 for the inhibition of MPO); 135 ± 9 µM in series [3]; 153 ± 9 µM in [4]. The “electrode potential E°′ (AM-OH/AM-O·,H+ redox couple)” value in series [8] is 0.71 ± 0.01 V. The “first-order rate constant of AM build-up from AMB-OH” value in series [6] (pH 7.4, 20 mM phosphate buffer) was “(1.85 ± 0.01) × 10^-4 s^-1”.

For the molecule `O=C(O)c1ccccc1-c1c2ccc(=O)cc-2oc2cc(B(O)O)ccc12` [FLBA, reference compound], the “rate constant of reaction with ONOO–” value in series [9] is 1.0 × 10^6 M^–1 s^–1. Besides, the “rate constant of reaction with HOCl” value in [10] (previously reported) is given as 1.11 × 10^4 M^–1 s^–1.

Take `O=c1[nH]c(=O)c2[nH]c(=O)[nH]c2[nH]1` [uric acid]: the “bimolecular rate constant of reaction with HOCl” value in series [10] (pH 7) is recorded as 3 × 10^5 M^–1 s^–1.
